The values that follow come from patent publication US9890171B2, “Aldosterone synthase inhibitors” (Boehringer Ingelheim International GmbH, priority 2014, dated 2018).

The IC50 is the concentration needed to halve the response being measured. Read a high IC50 as a need for much substance.

Each structure is given as a SMILES string.

aldosterone synthase (CYP11B2), sequence (A0A2K5UPL9 1-503): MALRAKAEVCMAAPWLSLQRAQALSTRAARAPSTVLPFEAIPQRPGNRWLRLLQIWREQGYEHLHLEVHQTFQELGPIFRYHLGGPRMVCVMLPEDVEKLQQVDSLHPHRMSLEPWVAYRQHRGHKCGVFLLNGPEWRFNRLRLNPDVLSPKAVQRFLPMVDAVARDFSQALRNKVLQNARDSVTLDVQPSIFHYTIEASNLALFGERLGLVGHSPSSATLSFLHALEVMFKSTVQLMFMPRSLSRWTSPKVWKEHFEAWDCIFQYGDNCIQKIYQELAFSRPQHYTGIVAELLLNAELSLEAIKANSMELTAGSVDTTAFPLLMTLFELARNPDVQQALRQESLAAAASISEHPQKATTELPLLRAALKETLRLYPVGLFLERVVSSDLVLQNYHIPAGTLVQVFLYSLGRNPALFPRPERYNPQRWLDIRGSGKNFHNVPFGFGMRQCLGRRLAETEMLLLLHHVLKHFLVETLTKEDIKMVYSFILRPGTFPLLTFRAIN

This assay deals with aldosterone synthase (CYP11B2) (Macaca fascicularis, UniProt A0A2K5UPL9). The assay is described as follows: aldosterone synthase inhibition assay. The class given is biochemical, cynomolgus monkey. The following applies: cynomolgus adrenal gland mitochondria, 2 μM corticosterone, aldosterone quantified by mass spectrometry. As for the experimental part:
The aldosterone synthase inhibition assay employs cynomolgus adrenal gland mitochondria as the source of aldosterone synthase (CYP11B2). Mitochondria are prepared from frozen cynomolgus monkey adrenal glands according to Method A described in by J. D. McGarry et al. (Biochem. J., 1983, 214, 21-28), with a final resuspension in the AT buffer described in R. Yamaguchi et al. (Cell Death and Differentiation, 2007, 14, 616-624), frozen as aliquots in liquid nitrogen and stored at −80° C. until use.
Assays are performed in 96-well format in a final volume of 60 μL/well, containing 100 mM potassium phosphate, pH 7.4, 1% (v/v) DMSO, and additionally, 2 μM of corticosterone and […] of mitochondrial protein. Reactions are started by the addition of NADPH to 1 mM and allowed to proceed for 60-90 minutes at 37° C. Reactions are terminated by the addition of […]. One hundred microliters are then transferred to a glass filter plate and centrifuged at 570×g for 5 minutes and the filtrate is collected. Reaction product aldosterone is quantified by mass spectrometry. To determine the assay blank value (0% activity), NADPH is omitted from some reactions.
Dose dependent inhibition is quantified by the inclusion of compound at various concentrations. Maximum activity (100%) is defined by reactions containing NADPH, but without compound. Activities at each concentration are expressed as a percentage of the maximum activity (y-axis) and plotted against concentration of compound (x-axis) and the concentration corresponding to 50% activity (IC50) determined using the XLFit curve-fitting program using a 4-parameter logistic model.
Take `CCS(=O)(=O)NC1COCc2c(-c3ccc4[nH]nc(C)c4c3)cncc21` (single isomer, unassigned) [Compound 69, Ethanesulfonic acid [8-(3-methyl-1H-indazol-5-yl)-3,4-dihydro-1H-pyrano[4,3-c]pyridin-4-yl]-amide]: the IC50 is 84.6 nM. This counts as double-digit nanomolar.
In turn, `Cc1cc2cnn(C)c2cc1-c1cncc2c1COCC2N` (single isomer, unassigned) [Compound 70, 8-(1,5-Dimethyl-1H-indazol-6-yl)-3,4-dihydro-1H-pyrano[4,3-c]pyridin-4-ylamine] showed an IC50 of 166 nM.
The result for `Cn1ncc2ccc(-c3cncc4c3COCC4N)cc21` (single isomer, unassigned) [Compound 71, 8-(1-Methyl-1H-indazol-6-yl)-3,4-dihydro-1H-pyrano[4,3-c]pyridin-4-ylamine] reads 22.2 nM; that for `CCC(=O)NC1COCc2c(-c3ccc4c(cnn4C)c3)cncc21` (single isomer, unassigned) [Compound 72, N-[8-(1-Methyl-1H-indazol-5-yl)-3,4-dihydro-1H-pyrano[4,3-c]pyridin-4-yl]-propionamide], 2300 nM; that for `CCC(=O)NC1COCc2c(-c3ccc4c(cnn4C)c3)cncc21` (single isomer, unassigned) [Compound 73, N-[8-(1-Methyl-1H-indazol-5-yl)-3,4-dihydro-1H-pyrano[4,3-c]pyridin-4-yl]-propionamide], 34.6 nM.
With `CC(=O)NC1COCc2c(-c3ccc4cnn(C)c4c3)cncc21` (single isomer, unassigned) [Compound 74, N-[8-(1-Methyl-1H-indazol-6-yl)-3,4-dihydro-1H-pyrano[4,3-c]pyridin-4-yl]-acetamide] the figure was 25.6 nM.
With `Cn1ncc2ccc(-c3cncc4c3COCC4NC(=O)C3CC3)cc21` (single isomer, unassigned) [Compound 75, Cyclopropanecarboxylic acid [8-(1-methyl-1H-indazol-6-yl)-3,4-dihydro-1H-pyrano[4,3-c]pyridin-4-yl]-amide] the figure was 26.4 nM.
In the case of `CCC(=O)NC1COCc2c(-c3ccc4cnn(C)c4c3)cncc21` (single isomer, unassigned) [Compound 76, N-[8-(1-Methyl-1H-indazol-6-yl)-3,4-dihydro-1H-pyrano[4,3-c]pyridin-4-yl]-propionamide], the IC50 is 17.9 nM.
The result for `CC(C)C(=O)NC1COCc2c(-c3ccc4cnn(C)c4c3)cncc21` (single isomer, unassigned) [Compound 77, N-[8-(1-Methyl-1H-indazol-6-yl)-3,4-dihydro-1H-pyrano[4,3-c]pyridin-4-yl]-isobutyramide] reads 32.6 nM.
For `CCS(=O)(=O)NC1COCc2c(-c3cc4c(cnn4C)cc3C)cncc21` (single isomer, unassigned) [Compound 78, Ethanesulfonic acid [8-(1,5-dimethyl-1H-indazol-6-yl)-3,4-dihydro-1H-pyrano[4,3-c]pyridin-4-yl]-amide], half-maximal inhibition (IC50) was put at 2800 nM.
In turn, `CCS(=O)(=O)NC1COCc2c(-c3cc4c(cnn4C)cc3C)cncc21` (single isomer, unassigned) [Compound 79, Ethanesulfonic acid [8-(1,5-dimethyl-1H-indazol-6-yl)-3,4-dihydro-1H-pyrano[4,3-c]pyridin-4-yl]-amide] had an IC50 of 653 nM.
`Cn1ncc2ccc(-c3cncc4c3COCC4NS(C)(=O)=O)cc21` (single isomer, unassigned) [Compound 80, N-[8-(1-Methyl-1H-indazol-6-yl)-3,4-dihydro-1H-pyrano[4,3-c]pyridin-4-yl]-methanesulfonamide] had an IC50 of 2100 nM. Compared with the last compound, the IC50 is about 3.2-fold higher.
The compound `Cn1ncc2ccc(-c3cncc4c3COCC4NS(C)(=O)=O)cc21` (single isomer, unassigned) [Compound 81, N-[8-(1-Methyl-1H-indazol-6-yl)-3,4-dihydro-1H-pyrano[4,3-c]pyridin-4-yl]-methanesulfonamide] yielded an IC50 of 28.5 nM. This IC50 is about 74-fold lower than that of the compound before.
`CCS(=O)(=O)NC1COCc2c(-c3ccc4c(cnn4C)c3)cncc21` (single isomer, unassigned) [Compound 82, Ethanesulfonic acid [8-(1-methyl-1H-indazol-5-yl)-3,4-dihydro-1H-pyrano[4,3-c]pyridin-4-yl]-amide] gave an IC50 of 215 nM. Compared with the last compound, the IC50 is about 7.5-fold higher.
The result for `CCS(=O)(=O)NC1COCc2c(-c3ccc4cnn(C)c4c3)cncc21` (single isomer, unassigned) [Compound 83, Ethanesulfonic acid [8-(1-methyl-1H-indazol-6-yl)-3,4-dihydro-1H-pyrano[4,3-c]pyridin-4-yl]-amide] reads 31.3 nM; that for `O=C1NCCc2cc(-c3cncc4c3COC3(CC3)C4O)ccc21` (single isomer, unassigned) [Compound 84, 6-[4-hydroxyspiro[1,4-dihydropyrano[4,3-c]pyridine-3,1′-cyclopropane]-8-yl]-3,4-dihydro-2H-isoquinolin-1-one], 255 nM.
The result for `O=C1NCCc2cc(-c3cncc4c3COC3(CC3)C4O)ccc21` (single isomer, unassigned) [Compound 85, 6-[4-hydroxyspiro[1,4-dihydropyrano[4,3-c]pyridine-3,1′-cyclopropane]-8-yl]-3,4-dihydro-2H-isoquinolin-1-one] reads 90.9 nM; that for `Cc1ncc2ccc(-c3cncc4c3COCC4O)cn12` (single isomer, unassigned) [Compound 86, 8-(3-Methyl-imidazo[1,5-a]pyridin-6-yl)-3,4-dihydro-1H-pyrano[4,3-c]pyridin-4-ol], 494 nM.
With `Cc1ncc2ccc(-c3cncc4c3COCC4O)cn12` (single isomer, unassigned) [Compound 87, 8-(3-Methyl-imidazo[1,5-a]pyridin-6-yl)-3,4-dihydro-1H-pyrano[4,3-c]pyridin-4-ol] the figure was 123 nM; with `Cc1ncc2ccc(-c3cncc4c3COC3(CC3)C4O)cn12` (single isomer, unassigned) [Compound 88, 8-(3-methylimidazo[1,5-a]pyridin-6-yl)spiro[1,4-dihydropyrano[4,3-c]pyridine-3,1′-cyclopropane]-4-ol], 128 nM.
In turn, `Cc1ncc2ccc(-c3cncc4c3COC3(CC3)C4O)cn12` (single isomer, unassigned) [Compound 89, 8-(3-methylimidazo[1,5-a]pyridin-6-yl)spiro[1,4-dihydropyrano[4,3-c]pyridine-3,1′-cyclopropane]-4-ol] came in with an IC50 of 73 nM.
Take `Cc1noc2ccc(-c3cncc4c3COCC4O)cc12` (single isomer, unassigned) [Compound 90, 8-(3-Methyl-benzo[d]isoxazol-5-yl)-3,4-dihydro-1H-pyrano[4,3-c]pyridin-4-ol]: the IC50 worked out at 8.5 nM.
With `Cc1nnc2ccc(-c3cncc4c3COC3(CC3)C4O)cn12` (single isomer, unassigned) [Compound 91, 8-(3-methyl-[1,2,4]triazolo[4,3-a]pyridin-6-yl)spiro[1,4-dihydropyrano[4,3-c]pyridine-3,1′-cyclopropane]-4-ol] the figure was 220 nM.
`Cn1ncc2c(F)cc(-c3cncc4c3COC3(CC3)C4O)cc21` (single isomer, unassigned) [Compound 92, 8-(4-fluoro-1-methyl-indazol-6-yl)spiro[1,4-dihydropyrano[4,3-c]pyridine-3,1′-cyclopropane]-4-ol] displayed an IC50 of 11.5 nM.
The compound `Cc1nnc2ccc(-c3cncc4c3COC3(CC3)C4O)cn12` (single isomer, unassigned) [Compound 93, 8-(3-methyl-[1,2,4]triazolo[4,3-a]pyridin-6-yl)spiro[1,4-dihydropyrano[4,3-c]pyridine-3,1′-cyclopropane]-4-ol] showed an IC50 of 271 nM.
With `Cc1noc2ccc(-c3cncc4c3COCC4O)cc12` (single isomer, unassigned) [Compound 94, 8-(3-Methyl-benzo[d]isoxazol-5-yl)-3,4-dihydro-1H-pyrano[4,3-c]pyridin-4-ol] the figure was 10.1 nM.
With `Cc1nnc2ccc(-c3cncc4c3COCC4O)cn12` (single isomer, unassigned) [Compound 95, 8-(3-Methyl-[1,2,4]triazolo[4,3-a]pyridin-6-yl)-3,4-dihydro-1H-pyrano[4,3-c]pyridin-4-ol] the figure was 766 nM.
The result for `Cn1ncc2c(F)cc(-c3cncc4c3COCC4O)cc21` (single isomer, unassigned) [Compound 96, 8-(4-Fluoro-1-methyl-1H-indazol-6-yl)-3,4-dihydro-1H-pyrano[4,3-c]pyridin-4-ol] reads 8.1 nM; that for `Cc1nnc2ccc(-c3cncc4c3COCC4O)cn12` (single isomer, unassigned) [Compound 97, 8-(3-Methyl-[1,2,4]triazolo[4,3-a]pyridin-6-yl)-3,4-dihydro-1H-pyrano[4,3-c]pyridin-4-ol], 205 nM; that for `OC1COCc2c(-c3ccc4nncn4c3)cncc21` (single isomer, unassigned) [Compound 98, 8-[1,2,4]Triazolo[4,3-a]pyridin-6-yl-3,4-dihydro-1H-pyrano[4,3-c]pyridin-4-ol], 1300 nM.
